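Results reflect a 48-hour exposure of cells in 96-well plates to compound at five concentrations. Abbreviation: GI50, concentration required for 50% inhibition of growth.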 The source made the active and inactive calls. Cut-off read from the data, not from the text of the source: active = GI50 up to about 1.1 µM and inactive = higher.
Columns and labels:
Assay in all cases: inhibition of tumour cell growth, NCI panel, 48 h
HOP-92 = system: HOP-92
CCRF-CEM = system: CCRF-CEM
SF-295 = system: SF-295
NCI-H522 = system: NCI-H522
DU-145 = system: DU-145
SK-MEL-28 = system: SK-MEL-28
A498 = system: A498
CAKI-1 = system: CAKI-1
LOX IMVI = system: LOX IMVI
T47D = system: T47D
OVCAR-4 = system: OVCAR-4
SK-OV-3 = system: SK-OV-3
EKVX = system: EKVX
Malme-3M = system: Malme-3M
M14 = system: M14
IGROV-1 = system: IGROV-1
HCC 2998 = system: HCC 2998
SN12C = system: SN12C
NCI-H460 = system: NCI-H460
SR = system: SR

Measured: GI50

Cn1ncc2c(Nc3cccc(Cl)c3)nc(Nc3cccc(Cl)c3)nc21
inactive: HOP-92 10.9 µM | CCRF-CEM 1.15 µM | SF-295 5.47 µM | NCI-H522 8.93 µM | DU-145 14.6 µM | SK-MEL-28 14.8 µM | A498 5.98 µM | CAKI-1 7.6 µM | LOX IMVI 5.82 µM | T47D 10.2 µM | OVCAR-4 11.9 µM | SK-OV-3 20 µM | EKVX 14.5 µM | Malme-3M 17.6 µM | M14 6.7 µM | IGROV-1 12.2 µM | HCC 2998 8.93 µM | SN12C 20.7 µM

CCC1(CC)C(=O)N(C(=O)c2ccc(Cl)cc2)N(C(=O)c2ccccc2Cl)C1=O
inactive: CCRF-CEM 40.8 µM | SF-295 63.5 µM | NCI-H522 14.4 µM | DU-145 > 100 µM | SK-MEL-28 98.4 µM | CAKI-1 > 100 µM | LOX IMVI 21 µM | NCI-H460 19.3 µM | T47D 62.7 µM | OVCAR-4 > 100 µM | SK-OV-3 > 100 µM | EKVX 4.58 µM | SR 34.9 µM | Malme-3M 35.7 µM | M14 > 100 µM | IGROV-1 3.5 µM | HCC 2998 > 100 µM | SN12C 45.1 µM

O=C(O[C@H](/C=C/c1ccccc1)P1(=O)N(Cc2ccccc2)[C@H]2CCCC[C@@H]2N1Cc1ccccc1)c1ccccc1
active: T47D 0.877 µM
inactive: HOP-92 1.99 µM | CCRF-CEM 3.48 µM | SF-295 3.74 µM | NCI-H522 3.48 µM | SK-MEL-28 8.83 µM | A498 7.48 µM | CAKI-1 2.17 µM | LOX IMVI 3.32 µM | NCI-H460 3.72 µM | OVCAR-4 1.49 µM | SK-OV-3 5.85 µM | EKVX 4.56 µM | SR 3.35 µM | Malme-3M 2.89 µM | M14 4.5 µM | IGROV-1 3.21 µM | HCC 2998 8.18 µM | SN12C 3.15 µM

CC(=O)C1(/N=N/c2ccc(S(N)(=O)=O)cc2)CCOC1=O (stereo not given)
inactive: HOP-92 > 100 µM | CCRF-CEM > 100 µM | SF-295 > 100 µM | NCI-H522 > 100 µM | DU-145 > 100 µM | SK-MEL-28 > 100 µM | A498 > 100 µM | CAKI-1 > 100 µM | LOX IMVI > 100 µM | NCI-H460 > 100 µM | T47D > 100 µM | OVCAR-4 > 100 µM | SK-OV-3 > 100 µM | EKVX > 100 µM | Malme-3M > 100 µM | M14 > 100 µM | IGROV-1 > 100 µM | SN12C > 100 µM

Cc1cc(C)c2c(=O)n(CN3CCN(c4ccccc4)CC3)sc2n1
inactive: HOP-92 > 100 µM | CCRF-CEM 9.59 µM | SF-295 > 100 µM | NCI-H522 14.4 µM | DU-145 22.2 µM | SK-MEL-28 36.6 µM | A498 > 100 µM | CAKI-1 21 µM | LOX IMVI 20.7 µM | NCI-H460 67.9 µM | T47D 15 µM | OVCAR-4 54 µM | SK-OV-3 > 100 µM | EKVX 29.8 µM | Malme-3M 37.2 µM | M14 24.5 µM | IGROV-1 > 100 µM | HCC 2998 71.3 µM | SN12C 27 µM

COC1/C=C(C)/C=C/C(C)/C=C/C(=O)OC(/C(C)=C/C=C(\C)CNC(=O)[C@H](CO)NC=O)C(C)/C=C/C=C/C(OC)CC/C=C(C)/C=C/C1 (stereo not given in full)
active: HOP-92 0.0447 µM | CCRF-CEM 0.0474 µM | SF-295 0.0229 µM | DU-145 > 0.312 µM | SK-MEL-28 > 0.283 µM | A498 > 1 µM | CAKI-1 0.0706 µM | LOX IMVI 0.0265 µM | NCI-H460 0.0316 µM | T47D 0.0525 µM | OVCAR-4 0.491 µM | SK-OV-3 > 1 µM | EKVX 0.139 µM | Malme-3M 0.0863 µM | M14 0.0183 µM | IGROV-1 0.262 µM

CCOC(=O)C1=COC(C)(C)CC1=O
inactive: SF-295 > 100 µM | NCI-H522 > 100 µM | DU-145 > 100 µM | SK-MEL-28 > 100 µM | A498 > 100 µM | CAKI-1 > 100 µM | NCI-H460 > 100 µM | T47D > 100 µM | OVCAR-4 > 100 µM | SK-OV-3 > 100 µM | EKVX > 100 µM | M14 > 100 µM | SN12C > 100 µM

C=C(C)OCOCCOC
inactive: CCRF-CEM > 100 µM | SF-295 > 100 µM | NCI-H522 > 100 µM | DU-145 > 100 µM | SK-MEL-28 > 100 µM | A498 > 100 µM | CAKI-1 > 100 µM | LOX IMVI > 100 µM | NCI-H460 > 100 µM | T47D > 100 µM | SK-OV-3 > 100 µM | EKVX > 100 µM | SR > 100 µM | Malme-3M > 100 µM | M14 > 100 µM | IGROV-1 > 100 µM | HCC 2998 > 100 µM | SN12C > 100 µM

COc1ccc2cc(CNCCCCCCNCc3ccc4cc(OC)ccc4c3)ccc2c1
inactive: DU-145 1.58 µM | A498 1.58 µM | CAKI-1 1.38 µM | SK-OV-3 1.85 µM | EKVX 1.39 µM | IGROV-1 1.57 µM | SN12C 1.33 µM
active: CCRF-CEM 0.153 µM | SF-295 0.486 µM | NCI-H522 0.64 µM | SK-MEL-28 0.471 µM | LOX IMVI 0.181 µM | NCI-H460 0.255 µM | T47D 0.452 µM | SR 0.184 µM | Malme-3M 1.05 µM | M14 0.169 µM | HCC 2998 0.132 µM

CCN1CCCc2cc3c(C(F)(F)F)cc(=O)oc3cc21
inactive: HOP-92 33.3 µM | SF-295 63.4 µM | NCI-H522 55.5 µM | DU-145 > 100 µM | SK-MEL-28 > 100 µM | A498 45.9 µM | CAKI-1 50.8 µM | LOX IMVI 82.2 µM | NCI-H460 82.8 µM | T47D 65.5 µM | OVCAR-4 > 100 µM | SK-OV-3 > 100 µM | EKVX 8.11 µM | M14 > 100 µM | IGROV-1 > 100 µM | HCC 2998 > 100 µM | SN12C 99.8 µM

NNC(=S)N/N=C(\C(=O)Nc1cccc(O)c1)C1C(=O)NC(=S)NC1=O
inactive: HOP-92 > 100 µM | CCRF-CEM > 100 µM | SF-295 > 100 µM | NCI-H522 > 100 µM | SK-MEL-28 > 100 µM | A498 > 100 µM | CAKI-1 > 100 µM | LOX IMVI > 100 µM | NCI-H460 > 100 µM | T47D > 100 µM | OVCAR-4 36.3 µM | SK-OV-3 > 100 µM | EKVX > 100 µM | SR > 100 µM | Malme-3M > 100 µM | M14 > 100 µM | IGROV-1 > 100 µM | HCC 2998 > 100 µM | SN12C > 100 µM

C/C(=N\Nc1nc2ccccc2s1)c1ncccn1
inactive: A498 3.13 µM
active: HOP-92 < 0.0276 µM | CCRF-CEM 0.1 µM | SF-295 0.11 µM | NCI-H522 0.0128 µM | DU-145 0.258 µM | SK-MEL-28 0.179 µM | CAKI-1 < 0.01 µM | NCI-H460 0.04 µM | T47D < 0.01 µM | SK-OV-3 0.103 µM | EKVX < 0.0111 µM | Malme-3M 0.0505 µM | M14 < 0.0194 µM | IGROV-1 0.0183 µM | HCC 2998 0.953 µM | SN12C < 0.0204 µM

CN1N=C(c2ccncc2)OC1c1ccc(Cl)cc1Cl (stereo not given)
inactive: CCRF-CEM 48.6 µM | SF-295 66.2 µM | NCI-H522 72.6 µM | DU-145 > 100 µM | SK-MEL-28 > 100 µM | A498 49.9 µM | LOX IMVI > 100 µM | NCI-H460 > 100 µM | T47D 60.3 µM | OVCAR-4 43.6 µM | SK-OV-3 93.3 µM | EKVX 41.7 µM | M14 95.3 µM | IGROV-1 > 100 µM | HCC 2998 > 100 µM | SN12C 75.3 µM

CCOC(=O)C(Cl)(NC(=O)c1c(F)c(F)c(F)c(F)c1F)C(F)(F)F (stereo not given)
inactive: HOP-92 28.3 µM | CCRF-CEM > 100 µM | SF-295 > 100 µM | NCI-H522 19.5 µM | DU-145 > 100 µM | SK-MEL-28 > 100 µM | CAKI-1 20 µM | LOX IMVI > 100 µM | T47D > 100 µM | OVCAR-4 > 100 µM | SK-OV-3 > 100 µM | EKVX 75.9 µM | SR 9.4 µM | Malme-3M > 100 µM | M14 > 100 µM | IGROV-1 > 100 µM | HCC 2998 > 100 µM | SN12C > 100 µM

CS/C=C\C(=O)O[C@H]1C[C@@H]2[C@@H](O)c3occ(C)c3C[C@]2(C)[C@@H](C)C1
inactive: HOP-92 25.8 µM | CCRF-CEM 27.3 µM | SF-295 29.6 µM | NCI-H522 23.2 µM | DU-145 27.9 µM | SK-MEL-28 19.8 µM | CAKI-1 39.7 µM | LOX IMVI 17.6 µM | NCI-H460 21.6 µM | T47D 24.4 µM | OVCAR-4 22.2 µM | SK-OV-3 36.6 µM | EKVX 37.5 µM | SR 35.1 µM | Malme-3M 18.3 µM | M14 20.3 µM | IGROV-1 20.4 µM | HCC 2998 29.2 µM | SN12C 16 µM

CN(C)CCCN1C(=O)N(CCCN(C)C)c2c3cc(O)ccc3nc3c([N+](=O)[O-])ccc1c23
inactive: HOP-92 4.82 µM | SF-295 34.4 µM | NCI-H522 6.92 µM | DU-145 27.9 µM | SK-MEL-28 43.3 µM | A498 22 µM | CAKI-1 23.3 µM | LOX IMVI 10.4 µM | NCI-H460 15.6 µM | T47D 30.3 µM | OVCAR-4 2.29 µM | SK-OV-3 32.7 µM | Malme-3M 17.8 µM | M14 32.7 µM | IGROV-1 4.57 µM | HCC 2998 11.7 µM | SN12C 20 µM

— ChEMBL document CHEMBL1201862, “PubChem BioAssay data set” (2004)
